Source: PMC4773869, “Influence of plasma-activated compounds on melanogenesis and tyrosinase activity” (Scientific Reports, 2016)
Read-outs that look alike come from different tables or passages of the source.

How the values were obtained:
mushroom tyrosinase [1] = target: T1, mushroom tyrosinase (Agaricus bisporus, UniProt C7FF04); experiment: Mushroom tyrosinase inhibition assay (L-DOPA, dopachrome at 492 nm); assay type: biochemical; parameters: purchased Sigma Chemical Co. USA; conditions: mean ± SD, read-out: Tyrosinase inhibitory activity IC50 (converted)
Method: To determine the action of ED and PAED, we checked the mushroom tyrosinase inhibitory activity in a cell-free environment. […] Moreover, after plasma treatment for different time intervals, we observed that inhibition activity of 4a, 4b, 4d and 6a was improved more as compared to without treatment. […] However, we observed the highest relative improvement in IC50 value of compound 4b among all ED compounds at 10 min plasma treatment. […] Therefore, we used the 4b and 6a compounds for further investigations, based on the decrease in IC50 value to a global minimum of the experiment after plasma treatment.
The mushroom tyrosinase was used for in vitro bioassays as described previously with some modifications. Briefly, 140 μl of phosphate buffer (20 mM, pH 6.8), 20 μl of mushroom tyrosinase (30 U/ml), and 20 μl of the inhibitor solution were placed in the wells of a 96-well plate. After pre-incubation for 10 min at room temperature, 20 μl of L-DOPA (3,4-dihydroxyphenylalanine) (0.85 mM) was added and the plate was further incubated at 25 °C for 20 min. Subsequently the absorbance of dopachrome was measured at 492 nm using a micro plate reader (OPTI Max, Tunable). Kojic acid was used as a reference inhibitor. The extent of inhibition by the test compounds was expressed as the […] necessary to achieve 50% inhibition (IC50). Each concentration was analyzed in three independent experiments run in triplicate. The IC50 values were determined by the data analysis and graphing software, Origin.
Target sequence in this assay (C7FF04 1-392): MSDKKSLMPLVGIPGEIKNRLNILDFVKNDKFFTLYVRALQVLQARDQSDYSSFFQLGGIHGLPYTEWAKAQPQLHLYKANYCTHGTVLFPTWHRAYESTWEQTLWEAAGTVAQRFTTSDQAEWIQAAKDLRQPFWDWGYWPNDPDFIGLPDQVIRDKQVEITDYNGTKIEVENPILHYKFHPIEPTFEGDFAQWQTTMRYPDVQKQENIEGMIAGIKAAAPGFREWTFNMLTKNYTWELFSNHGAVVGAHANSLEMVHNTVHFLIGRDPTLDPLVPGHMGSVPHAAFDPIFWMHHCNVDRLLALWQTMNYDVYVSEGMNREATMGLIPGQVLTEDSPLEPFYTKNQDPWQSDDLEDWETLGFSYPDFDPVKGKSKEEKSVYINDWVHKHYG

B16F10 cells = experiment: Intracellular melanin content measurement; assay type: cell-based, murine; conditions: for melanin, % of control (normalized to 100%): as-synthesized ED, no α-MSH, concentration not given
Method: Melanoma (1.5 × 10^5) cells were seeded in cell culture plates and allowed to attach for 24 hr. Then each eugenol derivative was added and tested separately for melanin activation after 24 hr of incubation. After incubation, cells were detached using trypsin/EDTA and centrifuged at 1000 rpm for 5 min to collect the cell pellets. The cell pellets were solubilized in 1N NaOH at 60 °C for 1 hr. The melanin content was measured spectrophotometrically at 405 nm wavelength using a microplate reader (BioTek, synergy HT)[56]. […] Plasma-treated and non-plasma-treated ED (4b and 6a) were added to the cells, pre-incubated with or without α-MSH (100 nM) for a further 24 hr and melanin content was assayed as described above. Kojic acid can inhibit and α-MSH can stimulate the melanin in the cells, therefore we used them as negative and positive controls.

mushroom tyrosinase [2] = target: T1, mushroom tyrosinase; experiment: Circular dichroism analysis of the secondary structure of mushroom tyrosinase; conditions: 0.1 mM; for α-helix % of tyrosinase: enzyme alone 16; for β-sheet % of tyrosinase: enzyme alone 33; for Turn % of tyrosinase: enzyme alone 7; for Random coil % of tyrosinase: enzyme alone 44
Method: The structural changes in tyrosinase after incubation with ED and PAED were plotted in Fig. 5. […] We observed that the control tyrosinase enzyme has 16% α-helix, 33% β-sheets, 7% turn, and 44% random coil. After the interaction with 4a, the amount of α-helix changed to 15% and β-sheets changed to 35%. On the other hand, after the plasma treatment of 4a the amount of α-helix changed to 17% and β-sheets changed to 31%. While, after interacting with 4b, the amount of α-helix is 16.0%, β-sheets 29%, turn 10%, and random coil is 45.0%. However, plasma-activated 4b interacts differently with tyrosinase enzyme, showing 16% α-helix, 33% β-sheets, 6% turn, and 45% random coil. When 6a ED interacted with tyrosinase enzyme, we observed 20% α-helix, 25% β-sheets, 11.0% turn, and 44% random coil. However, 6a PAED interacts with tyrosinase enzyme, the α-helix changed to 19%, β-sheets 28%, turn 9%, and random coil 44%. […] To obtain further detail on the interaction of the ED with tyrosinase enzyme, we studied the molecular docking. For the CD spectroscopic studies[65][66][67] a J-815 spectrophotometer (Jasco, Japan) was used, equipped with a Peltier system that controlled the temperature. (1S)-(+)-10-camphorsulfonic acid (Aldrich, Milwaukee, WI) with a molar extinction coefficient of 34.5 M/cm at 285 nm and a 2.36 M/cm molar ellipticity (θ) at 295 nm was used for the CD calibrations. The samples were pre-equilibrated at the desired temperature for 15 min, and the scan speed was fixed for adaptative sampling (error F 0.01) with a response time of 1 sec and a 1 nm bandwidth. The secondary structure of the mushroom tyrosinase was monitored by using a 1.0 cm path length cuvette. The mushroom tyrosinase (0.2 mg/ml) was prepared in phosphate buffer (20 mM) at pH 6.8 for CD analysis. We used the 0.1 mM concentration of all derivatives in 1 ml buffer solution, with or without 10 min plasma treatment. All spectra were collected in triplicate from 200 to 250 nm and the background was corrected against the buffer (blank). The percentages of secondary structures of proteins were calculated using inbuilt Jasco software.
Target sequence in this assay (C7FF04 2-392): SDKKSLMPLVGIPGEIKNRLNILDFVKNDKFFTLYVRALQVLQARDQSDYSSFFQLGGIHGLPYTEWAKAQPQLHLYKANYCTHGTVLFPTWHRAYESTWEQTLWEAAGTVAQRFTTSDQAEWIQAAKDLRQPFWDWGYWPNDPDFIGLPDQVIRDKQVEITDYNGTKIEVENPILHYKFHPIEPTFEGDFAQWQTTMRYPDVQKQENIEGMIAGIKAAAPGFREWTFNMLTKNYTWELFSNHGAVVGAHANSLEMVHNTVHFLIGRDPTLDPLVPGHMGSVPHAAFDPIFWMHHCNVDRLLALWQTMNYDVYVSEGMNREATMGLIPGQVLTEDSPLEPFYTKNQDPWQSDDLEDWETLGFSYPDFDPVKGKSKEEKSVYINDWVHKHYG

[3] = Con: as-synthesized, before plasma treatment, cell-free
[4] = compound after 3 min N2 APPJ plasma treatment
[5] = compound after 5 min N2 APPJ plasma treatment
[6] = compound after 10 min N2 APPJ plasma treatment
[7] = tyrosinase + 10 min plasma-treated compound
[8] = tyrosinase + as-synthesized compound (0 min plasma)

Row | Compound | IC50 (mushroom tyrosinase [1]; [3]) | IC50 (mushroom tyrosinase [1]; [4]) | IC50 (mushroom tyrosinase [1]; [5]) | IC50 (mushroom tyrosinase [1]; [6]) | melanin, % of control (normalized to 100%) (B16F10 cells) | α-helix % of tyrosinase (mushroom tyrosinase [2]; [7]) | β-sheet % of tyrosinase (mushroom tyrosinase [2]; [7]) | Turn % of tyrosinase (mushroom tyrosinase [2]; [8]) | α-helix % of tyrosinase (mushroom tyrosinase [2]; [8]) | β-sheet % of tyrosinase (mushroom tyrosinase [2]; [8]) | Random coil % of tyrosinase (mushroom tyrosinase [2]; [8]) | melting point | melanin stimulation (in words) (B16F10 cells; with or without plasma treatment, presence or absence of α-MSH (Fig. 10)) | inhibition at 250 µg/mL (B16F10 cells; Mus musculus, B16-F10, 250 μg/ml, absence of α-MSH, negative control, read-out: inhibition of melanin synthesis compared to the control) | melanin synthesis, % of control (100%) (B16F10 cells; 10 min plasma-treated, presence of α-MSH) | Turn % of tyrosinase (mushroom tyrosinase [2]; [7]) | Random coil % of tyrosinase (mushroom tyrosinase [2]; [7])
1 | C=CCc1ccc(OC(=O)COC(=O)c2cccc(O)c2)c(OC)c1 [4a, 2-[2-methoxy-4-(prop-2-en-1-yl)phenoxy]-2-oxoethyl 3-hydroxybenzoate] | 73 µM | 70.1 µM | 58.4 µM | 49.7 µM | 116% | 17% | 31% | 5% | 15% | 35% | 45% | 70 to 72 °C | – | – | – | – | –
2 | C=CCc1ccc(OC(=O)COC(=O)c2ccc(O)cc2O)c(OC)c1 [4c, 2-[2-methoxy-4-(prop-2-en-1-yl)phenoxy]-2-oxoethyl 2,4-dihydroxybenzoate] | 41.9 µM | 53 µM | 67 µM | 80.9 µM | 117% | – | – | 4% | 16% | 35% | 45% | 99 to 101 °C | – | – | – | – | –
3 | C=CCc1ccc(OC(=O)COC(=O)c2ccc(O)c(O)c2)c(OC)c1 [4d, 2-[2-methoxy-4-(prop-2-en-1-yl)phenoxy]-2-oxoethyl 3,4-dihydroxybenzoate] | 162 µM | 131 µM | 100 µM | 80.9 µM | 110% | – | – | 7% | 15% | 33% | 45% | 148 to 151 °C | – | – | – | – | –
4 | C=CCc1ccc(OC(=O)COC(=O)c2cc(O)cc(O)c2)c(OC)c1 [4e, 2-[2-methoxy-4-(prop-2-en-1-yl)phenoxy]-2-oxoethyl 3,5-dihydroxybenzoate] | 53 µM | 215 µM | 201 µM | 156 µM | 115% | – | – | 6% | 15% | 33% | 46% | 107 to 109 °C | – | – | – | – | –
5 | C=CCc1ccc(OC(=O)COC(=O)/C=C/c2ccc(Cl)cc2)c(OC)c1 [6b, 2-[2-methoxy-4-(prop-2-en-1-yl)phenoxy]-2-oxoethyl(2E)-3-(4-chloroyphenyl)prop-2-enoate] | 18.1 µM | 85.3 µM | 103 µM | 142 µM | 119% | – | – | 3% | 15% | 37% | 45% | 86 to 88 °C | Melanin stimulation was observed | – | – | – | –
6 | O=c1cc(CO)occ1O [Kojic acid, reference compound] | – | – | – | – | – | – | – | – | – | – | – | – | – | ~12% | – | – | –
7 | O=C(COC(=O)c1ccc(O)cc1)Oc1ccc(C(=O)/C=C/O)cc1OCO [Plasma treated 4b] | – | – | – | – | – | 16% | 33% | – | – | – | – | – | – | – | 188% | 6% | 45%
8 | C=CC(=O)c1ccc(OC(=O)COC(=O)/C=C/c2ccc(O)cc2)c(OC)c1 [Plasma treated 6a] | – | – | – | – | – | 19% | 28% | – | – | – | – | – | – | – | – | 9% | 44%
